Assay results as given in patent US20030040438A1, “Method for increasing the yield of beans” (priority 2000, published 2003).

System: soybean seeds (Variety: Halosoy)
Assay: Test of Yield Increasing Effect on Soybeans (seed drenching)
Type: in vivo
Settings: seeds drenched 12 hours; for Productive grain increasing index: average number of productive grains per plant in non-treated section = 100%; for Yield increasing index per plant: harvest 110 days after sowing, yield (g) in non-treated section = 100%; for One grain weight: weight per selected bean after threshing and drying, non-treated 0.22 g

Q: How did the “Productive grain increasing index” value (1 ppm) turn out when `CCC1(C(=O)NC(C)c2ccc(Cl)cc2)C(C)C1(Cl)Cl` [Carpropamid, N-(R)-[1-(4-chloro-phenyl)-ethyl]-2,2-dichloro-1-ethyl-3t-methyl-1r-cyclopropanecarboxamide] was run?
A: Its value is 127.1%.

Q: What about the “Yield increasing index per plant” value (1 ppm) of the same molecule?
A: The value was 131.1%.

Q: What about the One grain weight (1 ppm) of the same molecule?
A: The One grain weight was 0.23 g.

Q: And the “Productive grain increasing index” value (10 ppm)?
A: The value was 163.5%.

Q: And the “Yield increasing index per plant” value (10 ppm)?
A: The value was 173.1%.

Q: And the One grain weight (10 ppm)?
A: Its One grain weight is 0.23 g.

Q: What about the “Productive grain increasing index” value (100 ppm) of the same molecule?
A: Its value is 163.4%.

Q: And the “Yield increasing index per plant” value (100 ppm)?
A: Its value is 169.1%.

Q: And the One grain weight (100 ppm)?
A: Its One grain weight is 0.23 g.

Q: What about the “Productive grain increasing index” value (1000 ppm) of the same molecule?
A: The value was 126.8%.

Q: And the “Yield increasing index per plant” value (1000 ppm)?
A: Its value is 132.2%.

Q: What about the One grain weight (1000 ppm) of the same molecule?
A: Its One grain weight is 0.23 g.
